Experimental data from US9910034B2, “Methods and compositions for phototransfer” (AmberGen, Inc., priority 2007, dated 2018).

Biological target: T1, protein kinase Cα (PKCα) (Homo sapiens, UniProt P17252)
T1 construct: isolate and photo-release endogenous PKCα from the undiluted detergent fractionated HeLa cell extracts; endogenous in cells; host or cells: HeLa cells (ATCC)
Experiment: PMA mediated PKCα sub-cellular translocation measured by kinase activity after isolation with photocleavable antibodies
Format: cell-based
Settings: cultured HeLa cells stimulated with 200 nM PMA for 5 min; detergent fractionated; based on kinase activity of photocleavable antibody isolated protein; n=4
Protocol: FIG. 20. Phorbol ester (PMA) mediated protein kinase Cα (PKCα) sub-cellular translocation as measured by functional activity following isolation with photocleavable antibodies. Cultured HeLa cells were stimulated with 200 nM PMA for 5 min and detergent fractionated into the cytosol and membrane compartments prior to isolation and purification with the photocleavable antibodies.
Cultured HeLa cells (ATCC; Manassas, Va.) were stimulated for 5 min with 200 nM Phorbol-12-Myristate-13-Acetate (PMA; EMD Biosciences, Inc., San Diego, Calif.) and subsequently detergent fractionated into sub-cellular compartments according to reported procedures [Ramsby et al. (1994) Electrophoresis 15, 265-277; Ramsby & Makowski. (1999) Methods Mol Biol 112, 53-66; Chiang et al. (2000) J Biochem Biophys Methods 46, 53-68]. PMA is a potent activator of PKCα and is well known to cause translocation of the kinase from the cytosolic to the membrane sub-cellular compartments [Ross & Joyner. (1997) Endothelium 5, 321-332; Bazan & Rapoport. (1996) J Pharmacol Toxicol Methods 36, 87-95; Yazlovitskaya Melnykovych. (1995) Cancer Lett 88, 179-183]. […]

CCCCCCCCCCCCCC(=O)O[C@@H]1[C@@H](C)[C@@]2(O)[C@@H](C=C(CO)C[C@]3(O)C(=O)C(C)=C[C@@H]23)[C@@H]2C(C)(C)[C@]12OC(C)=O [PMA, Phorbol-12-Myristate-13-Acetate]
relative sub-cellular distribution of PKCα, cytosol: 16±4% | relative sub-cellular distribution of PKCα, membrane: 84±3%
